From patent publication US20070213291A1, “Therapeutically useful synthetic oligonucleotides” (priority 1999, published 2007)
“And” between values parts separate entries of the source, which are not always exact repeats. Equal entries are not always repeated.

What was measured:
Assay type in all cases: cell-based
[1] = test system: MCF-7 human breast cancer cells; assay: Inhibition of MCF-7 cell proliferation (MTT); conditions: for % INHIBITION of MCF-7 human breast cancer cell proliferation: 100 μg/ml, 48 h, 5×10^5 cells/ml
How it was run: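 Cells at 2.5×10^5 cells/ml (GT 3- and 6-base series at 5×10^5 cells/ml) treated with 100 μg/ml of 2-45-base oligonucleotide sequences versus untreated control for 48 h at 37 °C, 5% CO2. Proliferation read by MTT reduction at 570 nm.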

[2] = test system: THP-1 human acute monocytic leukemia cells; assay: Inhibition of THP-1 cell proliferation (MTT); conditions: 100 μg/ml, 48 h, 1.6×10^6 cells/ml
Experimental: (§1) Cells were seeded in 6 (1 ml/well), 24 (0.5 ml/well) or 96 (0.1 ml/well) well flat-bottom microplates and were maintained at 37° C. in a 5% CO2 atmosphere. Unless stated otherwise, 2.5×10^5 cells/ml were incubated with 0 μg/ml (control) and 100 μg/ml (treated) of 2 to 45 base sequences containing A, C, G and T for 48 h.
(§2) Cell proliferation was measured using dimethylthiazol-diphenyl-tetrazolium (MTT) reduction (Mosman et al. J. Immunol. Methods 65:55, 1983). MTT was measured at a wavelength of 570 nm using a multiplate spectrophotometer reader (ELX800, Bio-TEK Instruments Inc., Winooski, Vt.).
THP-1 acute monocytic leukemia cells are a p53 null human suspension tumor model. THP-1 cells (1.6×10^6 cells/ml) were incubated with 6 base GT sequences (Table 10).

rhesus monkey PBMCs = assay: Cytokine production by rhesus monkey PBMC (ELISA); conditions: PBMC of 4 healthy rhesus monkeys, 100 μg/ml, 48 h
How it was run: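 Peripheral blood mononuclear cells taken from 4 healthy rhesus monkeys were cultured at 1×10^6 cells with 100 μg/ml of each test sequence for 48 h at 37° C. under 5% CO2. Cytokine levels in 100 μl of supernatant were quantified in pg/ml by commercial ELISA and reported as fold increase over untreated control cells.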

[3] = test system: PC-3 human prostate cancer cells; assay: Inhibition of PC-3 cell proliferation (MTT); conditions: 100 μg/ml, 48 h, 5×10^5 cells/ml
How it was run: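 PC-3 cells (5×10^5 cells/ml) exposed 48 h at 37 °C to 3- and 6-base GT oligonucleotide sequences at 100 μg/ml versus untreated control. Proliferation read by MTT reduction at 570 nm.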

[4] = test system: Jurkat human leukemia T cells; assay: Cell cycle stage in Jurkat cells (propidium iodide flow cytometry); conditions: 24 h
How it was run: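 Phase distribution (G0/G1, early, mid and late S, G2/M) came from flow cytometry with doublet discrimination on propidium iodide-stained nuclei. Jurkat cells were given 24 h exposure to 2–45-base oligonucleotides, or at 1×10^6 cells/ml to single 6-base GT or AC strands heated 10 min at 65 °C or 1:1 hybridized duplex.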

[5] = test system: CF-51 canine mammary gland cancer cells; assay: Inhibition of CF-51 cell proliferation (MTT); conditions: 100 μg/ml, 48 h, 5×10^5 cells/ml
Experimental: as §1, §2
(§3) D-17 canine osteosarcoma cells and CF-51 canine mammary gland cancer cells are solid tumor models. D-17 canine osteosarcoma cells (5×10^5 cells/ml) (Table 20) and CF-51 canine mammary gland cancer cells (5×10^5 cells/ml) (Table 21) were incubated with 6, 9, 17, 27 and 33 base GT-sequences and with a 15 base ACG sequence.

[6] = test system: human peripheral blood mononuclear cells; assay: Cytokine production by human PBMC (ELISA); conditions: PBMC of 7 healthy humans, 100 μg/ml, 48 h
How it was run: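 PBMC from 7 healthy donors, Ficoll-isolated; 1×10^6 cells incubated with 100 μg/ml oligonucleotide sequence for 48 h at 37 °C, 5% CO2. IL-1beta, IL-6, IL-10, IL-12 (p70 plus free p40) and TNF-alpha measured by ELISA in supernatant, expressed as fold increase over control cells.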

[7] = test system: LNCaP human prostate cancer cells; assay: Inhibition of LNCaP cell proliferation (MTT); conditions: 100 μg/ml, 48 h, 5×10^5 cells/ml
How it was run: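 Cells (2.5×10^5 or 5×10^5 cells/ml) exposed to 100 μg/ml of 2–45 base A/C/G/T sequences, including 6-base GT sequences, versus untreated control, 48 h at 37 °C, 5% CO2. Proliferation read by MTT reduction at 570 nm.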

[8] = test system: D-17 canine osteosarcoma cells; assay: Inhibition of D-17 cell proliferation (MTT); conditions: 100 μg/ml, 48 h, 5×10^5 cells/ml
Experimental: as §1, §2, §3

[9] = test system: Jurkat human leukemia T cells; assay: Inhibition of Jurkat human leukemia T cell proliferation (MTT reduction); conditions: for % INHIBITION of Jurkat proliferation at suboptimal concentration: 5.0 μg/ml of each 6 base sequence, alone or two together; for % INHIBITION of Jurkat human leukemia T cell proliferation: 100 μg/ml sequence, 48 h, 2.5×10^5 cells/ml
How it was run: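 Read-out is MTT absorbance at 570 nm after 48 h. Sequences of 2 to 45 bases (A, C, G, T) tested at 100 μg/ml against untreated control, with 2.5×10^5 Jurkat cells/ml held at 37° C under 5% CO2.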

[10] = 5-fluorouracil 0.1 μg/ml, alone or with sequence at 1.0 μg/ml
[11] = 5-fluorouracil 1.0 μg/ml, alone or with sequence at 1.0 μg/ml
[12] = 5-fluorouracil 10.0 μg/ml, alone or with sequence at 1.0 μg/ml
[13] = sequence at 1.0 μg/ml, 5-fluorouracil 0.0 μg/ml
[14] = Jurkat 1×10^6 cells/ml, sequences heated 10 minutes at 65° C.

GGGTGG [SEQ ID NO:25]
% INHIBITION of MCF-7 human breast cancer cell proliferation [1]: 41%
% INHIBITION of MCF-7 proliferation, 5-Fluorouracil 0.1 μg/ml [1, 10]: 24%
% INHIBITION of MCF-7 proliferation, 5-Fluorouracil 1.0 μg/ml [1, 11]: 36%
% INHIBITION of MCF-7 proliferation, 5-Fluorouracil 10.0 μg/ml [1, 12]: 33%
potentiation of antineoplastic effect of 5-fluorouracil on MCF-7 cell proliferation ([1]; sequence 1.0 μg/ml, 0.1 μg/ml 5-fluorouracil): potentiated
potentiation of antineoplastic effect of tamoxifen on MCF-7 cell proliferation ([1]; sequence 1.0 μg/ml, 0.1 μg/ml tamoxifen): potentiated
% INHIBITION of MCF-7 proliferation, 5-Fluorouracil 0.0 μg/ml [1, 13]: 6%
% INHIBITION of MCF-7 proliferation, Tamoxifen 0.0 μg/ml ([1]; sequence at 1.0 μg/ml, tamoxifen 0.0 μg/ml): 6%
% INHIBITION of MCF-7 proliferation, Tamoxifen 0.1 μg/ml ([1]; tamoxifen 0.1 μg/ml, alone or with sequence at 1.0 μg/ml): 21%
% INHIBITION of MCF-7 proliferation, Tamoxifen 1.0 μg/ml ([1]; tamoxifen 1.0 μg/ml, alone or with sequence at 1.0 μg/ml): 24%
% INHIBITION of MCF-7 proliferation, Tamoxifen 10.0 μg/ml ([1]; tamoxifen 10.0 μg/ml, alone or with sequence at 1.0 μg/ml): 31%
% INHIBITION of THP-1 human acute monocytic leukemia cell proliferation [2]: 15%
IL-10 fold increase: mean +/− SD (rhesus monkey PBMCs): 1.0 +/− 0.1 fold increase
IL-12 fold increase: mean +/− SD (rhesus monkey PBMCs): 10.6 +/− 4.7 fold increase
TNF-alpha fold increase: mean +/− SD (rhesus monkey PBMCs): 12.5 +/− 5.2 fold increase
% INHIBITION of PC-3 human prostate cancer cell proliferation [3]: 38%
% cells in phase: G0/G1 [4, 14]: 28.0%
% cells in phase: G2/M [4, 14]: 0.9%
% cells in phase: SE [4, 14]: 45.8%
% cells in phase: SL [4, 14]: 11.3%
% cells in phase: SM [4, 14]: 14.0%
Arrest (cell cycle) [4, 14]: induced arrest at the end of the SE phase of the cell cycle
% of cells in phase: G0/G1 ([4]; Jurkat, 100 μg/ml): 28.5%
% of cells in phase: G2/M ([4]; Jurkat, 100 μg/ml): 0.0%
% of cells in phase: SE ([4]; Jurkat, 100 μg/ml): 46.3%
% of cells in phase: SL ([4]; Jurkat, 100 μg/ml): 10.7%
% of cells in phase: SM ([4]; Jurkat, 100 μg/ml): 14.6%
Arrest (cell cycle) ([4]; Jurkat, 100 μg/ml): End SE
% INHIBITION of CF-51 canine mammary gland cancer cell proliferation [5]: 14%
IL-1 beta fold increase: mean +/− SD [6]: 1.0 +/− 0.1 fold increase
IL-6 fold increase: mean +/− SD [6]: 20.9 +/− 18.0 fold increase
IL-10 fold increase: mean +/− SD [6]: 11.6 +/− 1.2 fold increase
IL-12 fold increase: mean +/− SD [6]: 13.2 +/− 11.5 fold increase
% INHIBITION of LNCaP human prostate cancer cell proliferation [7]: 18%
% INHIBITION of D-17 canine osteosarcoma cell proliferation [8]: 18%
% INHIBITION of Jurkat proliferation at suboptimal concentration [9]: 5%
% INHIBITION of Jurkat human leukemia T cell proliferation [9]: 60%
% INHIBITION of Jurkat proliferation, 5-Fluorouracil 0.1 μg/ml [9, 10]: 10%
% INHIBITION of Jurkat proliferation, 5-Fluorouracil 1.0 μg/ml [9, 11]: 21%
% INHIBITION of Jurkat proliferation, 5-Fluorouracil 10.0 μg/ml [9, 12]: 40%
relative potency versus AGT SEQ ID NO:49 ([9]; Jurkat proliferation, PHARM/PCS-4 Software): 3.4 times
% INHIBITION of Jurkat proliferation, Cisplatin 0.1 μg/ml ([9]; cisplatin 0.1 μg/ml, alone or with sequence at 1.0 μg/ml): 14%
% INHIBITION of Jurkat proliferation, Cisplatin 1.0 μg/ml ([9]; cisplatin 1.0 μg/ml, alone or with sequence at 1.0 μg/ml): 38%
% INHIBITION of Jurkat proliferation, Cisplatin 10.0 μg/ml ([9]; cisplatin 10.0 μg/ml, alone or with sequence at 1.0 μg/ml): 76%
potentiation of antineoplastic effect of 5-fluorouracil on Jurkat T cell proliferation ([9]; sequence 1.0 μg/ml, 0.1 and 1.0 μg/ml 5-fluorouracil): potentiated
potentiation of antineoplastic effect of cisplatin on Jurkat T cell proliferation ([9]; sequence 1.0 μg/ml, 0.1 and 1.0 μg/ml cisplatin): potentiated
% INHIBITION of Jurkat proliferation, 5-Fluorouracil 0.0 μg/ml [9, 13]: 0%
% INHIBITION of Jurkat proliferation, Cisplatin 0.0 μg/ml ([9]; sequence at 1.0 μg/ml, cisplatin 0.0 μg/ml): 0%

GTGTGT [SEQ ID NO:10]
% INHIBITION of MCF-7 human breast cancer cell proliferation [1]: 31%
% INHIBITION of THP-1 human acute monocytic leukemia cell proliferation [2]: 11%
IL-10 fold increase: mean +/− SD (rhesus monkey PBMCs): 1.3 +/− 0.1 fold increase
IL-12 fold increase: mean +/− SD (rhesus monkey PBMCs): 10.7 +/− 4.1 fold increase
TNF-alpha fold increase: mean +/− SD (rhesus monkey PBMCs): 16.1 +/− 4.2 fold increase
% INHIBITION of PC-3 human prostate cancer cell proliferation [3]: 37%
% of cells in phase: G0/G1 ([4]; Jurkat, 100 μg/ml): 30.8%
% of cells in phase: G2/M ([4]; Jurkat, 100 μg/ml): 0.3%
% of cells in phase: SE ([4]; Jurkat, 100 μg/ml): 41.9%
% of cells in phase: SL ([4]; Jurkat, 100 μg/ml): 10.2%
% of cells in phase: SM ([4]; Jurkat, 100 μg/ml): 16.8%
Arrest (cell cycle) ([4]; Jurkat, 100 μg/ml): End SE
% INHIBITION of CF-51 canine mammary gland cancer cell proliferation [5]: 15%
IL-1 beta fold increase: mean +/− SD [6]: 2.0 +/− 1.6 fold increase
IL-6 fold increase: mean +/− SD [6]: 9.8 +/− 14.2 fold increase
IL-10 fold increase: mean +/− SD [6]: 1.0 +/− 0.1 fold increase
IL-12 fold increase: mean +/− SD [6]: 4.0 +/− 6.3 fold increase
% INHIBITION of LNCaP human prostate cancer cell proliferation [7]: −4%
% INHIBITION of D-17 canine osteosarcoma cell proliferation [8]: 15%
% INHIBITION of Jurkat proliferation at suboptimal concentration [9]: 2%
% INHIBITION of Jurkat human leukemia T cell proliferation [9]: 44% and 48%

TTGTTT [SEQ ID NO:26]
% INHIBITION of MCF-7 human breast cancer cell proliferation [1]: 20%
% INHIBITION of THP-1 human acute monocytic leukemia cell proliferation [2]: 1%
IL-10 fold increase: mean +/− SD (rhesus monkey PBMCs): 1.0 +/− 0.1 fold increase
TNF-alpha fold increase: mean +/− SD (rhesus monkey PBMCs): 2.1 +/− 1.0 fold increase
% INHIBITION of PC-3 human prostate cancer cell proliferation [3]: 18%
% of cells in phase: G0/G1 ([4]; Jurkat, 100 μg/ml): 32.6%
% of cells in phase: G2/M ([4]; Jurkat, 100 μg/ml): 32.4%
% of cells in phase: SE ([4]; Jurkat, 100 μg/ml): 11.5%
% of cells in phase: SL ([4]; Jurkat, 100 μg/ml): 10.7%
% of cells in phase: SM ([4]; Jurkat, 100 μg/ml): 12.8%
Arrest (cell cycle) ([4]; Jurkat, 100 μg/ml): END G2/M
IL-1 beta fold increase: mean +/− SD [6]: 1.5 +/− 0.9 fold increase
IL-6 fold increase: mean +/− SD [6]: 5.8 +/− 8.0 fold increase
IL-10 fold increase: mean +/− SD [6]: 1.0 +/− 0.1 fold increase
IL-12 fold increase: mean +/− SD [6]: 1.6 +/− 1.3 fold increase
% INHIBITION of LNCaP human prostate cancer cell proliferation [7]: 22%
% INHIBITION of Jurkat proliferation at suboptimal concentration [9]: −2%
% INHIBITION of Jurkat human leukemia T cell proliferation [9]: 34%
